One test deals with T1, MDM2 (Homo sapiens, UniProt Q00987).
T1 construct: made in house
Description: Inhibition test of MDM2-P53 (GST-MDM2, Biotin-P53, Anti-GST-Tb, SA-XL665). In kind it is binding. The following applies: labels are Example numbers; the compounds with S-configuration are meant. The procedure, abridged: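 Compounds, serially diluted 5-fold (twelve concentrations), were shaken for 90 min at 25° C with a mix of GST-MDM2 (4 nM final), Biotin-P53, anti-GST-Tb and SA-XL665. Buffer: 1×PBS, 0.1% BSA, 5 mM DTT, 1 mM AEBSF; signal read on a microplate reader.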

The subject of test [1] is human osteosarcoma cell line SJSA-1. Description: Inhibition of proliferation of human osteosarcoma cell line SJSA-1 (DAPI staining, In Cell Analyzer). The following applies: for inhibitory effect on human osteosarcoma cell line SJSA-1 compared with positive control compound HDM201: labels are Example numbers, the compounds with S-configuration are meant.

T1 sequence (Q00987 whole entry): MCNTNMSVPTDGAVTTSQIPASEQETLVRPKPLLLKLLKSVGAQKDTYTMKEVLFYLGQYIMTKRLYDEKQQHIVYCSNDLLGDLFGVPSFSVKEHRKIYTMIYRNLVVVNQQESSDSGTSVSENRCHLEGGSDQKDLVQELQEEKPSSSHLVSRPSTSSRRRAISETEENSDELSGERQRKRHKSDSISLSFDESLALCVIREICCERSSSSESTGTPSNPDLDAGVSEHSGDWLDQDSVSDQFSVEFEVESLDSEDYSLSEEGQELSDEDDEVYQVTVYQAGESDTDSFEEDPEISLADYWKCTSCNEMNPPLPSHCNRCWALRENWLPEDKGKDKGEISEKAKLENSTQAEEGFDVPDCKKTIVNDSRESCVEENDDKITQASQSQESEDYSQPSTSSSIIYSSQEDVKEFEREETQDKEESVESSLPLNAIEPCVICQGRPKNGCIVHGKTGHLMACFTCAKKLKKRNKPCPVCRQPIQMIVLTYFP

For `COc1ncc(-c2nc3c(n2C(C)C)C2(C(=O)Nc4cc(Cl)ccc42)N(c2cc(Cl)ccc2C)C3=O)c(OC)n1` (stereo not drawn) [Example 2, 6-chloro-5′-(5-chloro-2-methylphenyl)-2′-(2,4-dimethoxypyrimidin-5-yl)-3′-isopropyl-3′H-spiro[dihydroindole-3,4′-pyrrolo[3,4-d]imidazole]-2,6′(5′H)-dione], on MDM2, the “inhibitory effect on MDM2 compared with positive control compound HDM201” value is recorded as “better”. The “inhibitory effect on human osteosarcoma cell line SJSA-1 compared with positive control compound HDM201” value in test [1] is reported as “better”. With `COc1cc(OC)c(-c2nc3c(n2C(C)C)C2(C(=O)Nc4cc(Cl)ccc42)N(c2cc(Cl)ccc2C)C3=O)cn1` (stereo not drawn) [Example 11, 6-chloro-5′-(5-chloro-2-methylphenyl)-2′-(4,6-dimethoxypyridin-3-yl)-3′-isopropyl-3′H-spiro[dihydroindole-3,4′-pyrrolo[3,4-d]imidazole]-2,6′(5′H)-dione], the “inhibitory effect on MDM2 compared with positive control compound HDM201” value at MDM2 is listed as “better”. Further, the “inhibitory effect on human osteosarcoma cell line SJSA-1 compared with positive control compound HDM201” value in test [1] is listed as “better”. For `CCc1ccc(Cl)cc1N1C(=O)c2nc(-c3cnc(OC)nc3OC)n(C(C)C)c2C12C(=O)Nc1cc(Cl)ccc12` (stereo not drawn) [Example 15, 6-chloro-5′-(5-chloro-2-ethylphenyl)-2′-(2,4-dimethoxypyrimidin-5-yl)-3′-isopropyl-3′H-spiro[dihydroindole-3,4′-pyrrolo[3,4-d]imidazole]-2,6′(5′H)-dione], the “inhibitory effect on MDM2 compared with positive control compound HDM201” value at MDM2 is listed as “better”. In addition, in test [1], the “inhibitory effect on human osteosarcoma cell line SJSA-1 compared with positive control compound HDM201” value was “better”.

As to `COc1ccc(C(=O)N(C)C)cc1-c1nc2c(n1C(C)C)C1(C(=O)Nc3cc(Cl)ccc31)N(c1cc(Cl)ccc1C)C2=O` (stereo not drawn) [Example 22, 3-(6-chloro-5′-(5-chloro-2-methylphenyl)-3′-isopropyl-2,6′-dioxo-5′,6′-dihydro-3′H-spiro[dihydroindole-3,4′-pyrrolo[3,4-d]imidazole]-2′-yl)-4-methoxy-N,N-dimethylbenzamide], on MDM2, the “inhibitory effect on MDM2 compared with positive control compound HDM201” value is reported as “better”. For the same compound, in test [1], the “inhibitory effect on human osteosarcoma cell line SJSA-1 compared with positive control compound HDM201” value was “better”.

Turning to `COc1ncc(-c2nc3c(n2C(C)C)C2(C(=O)Nc4cc(Cl)ccc42)N(c2cc(Cl)cnc2C)C3=O)c(OC)n1` (stereo not drawn) [Example 42, 6-chloro-5′-(5-chloro-2-methylpyridin-3-yl)-2′-(2,4-dimethoxypyrimidin-5-yl)-3′-isopropyl-3′H-spiro[dihydroindole-3,4′-pyrrolo[3,4-d]imidazole]-2,6′(5′H)-dione], on MDM2, the “inhibitory effect on MDM2 compared with positive control compound HDM201” value is reported as “better”. Also, in test [1], the “inhibitory effect on human osteosarcoma cell line SJSA-1 compared with positive control compound HDM201” value is on record as “better”. Take `COc1ncc(-c2nc3c(n2C(C)C)C2(C(=O)Nc4cc(Cl)ccc42)N(c2cc(F)cc(Cl)c2)C3=O)c(OC)n1` (stereo not drawn) [Example 45, 6-chloro-5′-(3-chloro-5-fluorophenyl)-2′-(2,4-dimethoxypyrimidin-5-yl)-3′-isopropyl-3′H-spiro[dihydroindole-3,4′-pyrrolo[3,4-d]imidazole]-2,6′(5′H)-dione]: the “inhibitory effect on MDM2 compared with positive control compound HDM201” value against MDM2 is given as “better”. The “inhibitory effect on human osteosarcoma cell line SJSA-1 compared with positive control compound HDM201” value in test [1] was “better”. For the compound `COc1cc(N)ccc1-c1nc2c(n1C(C)C)C1(C(=O)Nc3cc(Cl)ccc31)N(c1cc(Cl)ccc1C)C2=O` (stereo not drawn) [Example 49, 2′-(4-amino-2-methoxyphenyl)-6-chloro-5′-(5-chloro-2-methylphenyl)-3′-isopropyl-3′H-spiro[dihydroindole-3,4′-pyrrolo[3,4-d]imidazole]-2,6′(5′H)-dione], the “inhibitory effect on MDM2 compared with positive control compound HDM201” value against MDM2 is listed as “better”. Further, the “inhibitory effect on human osteosarcoma cell line SJSA-1 compared with positive control compound HDM201” value in test [1] is reported as “better”. Consider `COc1ccncc1-c1nc2c(n1C(C)C)[C@@]1(C(=O)Nc3cc(Cl)ccc31)N(c1ccc(F)c(Cl)c1)C2=O` [Example S-59, (S)-6-chloro-5′-(3-chloro-4-fluorophenyl)-3′-isopropyl-2′-(4-methoxypyridin-3-yl)-3′H-spiro[dihydroindole-3,4′-pyrrolo[3,4-d]imidazole]-2,6′(5′H)-dione], for which the IC50 in test [1] (Homo sapiens, SJSA-1, 72 h, read-out: IC50 (nM), inhibitory activity on proliferation of human osteosarcoma cell line SJSA-1, SJSA-1, incubated 72 h) came out at 263 nM.
